The results in this text go back to ChEMBL document CHEMBL1201862, “PubChem BioAssay data set” (2004).

Calls of active or inactive are those of the source.

The target in assay [1] is T1, Intestinal-type alkaline phosphatase (Homo sapiens, UniProt P09923). Put plainly: inhibition of human intestinal alkaline phosphatase – biochemical, dose response (AID 488876). In kind it is functional.
Assay [2] has as its target Polyadenylate-binding protein 1 (Homo sapiens, UniProt P11940). Put plainly: blockers of PABP interaction with poly(A) – biochemical, fluorescence polarization, […] (AID 2014). A general note: Fluorescence polarisation rises when a labelled molecule tumbles more slowly, as on binding a larger partner.
The target in assay [3] is Eukaryotic translation initiation factor 4H (Homo sapiens, UniProt Q15056). The assay is described as follows: eIF4H binding inhibition – biochemical, uHTS, fluorescence polarization, translation initiation inhibitor project, primary screen (AID 2012).
For assay [4], the target named is T2, Intestinal-type alkaline phosphatase (Mus musculus, UniProt P24822). Put plainly: PubChem AID 488785. In kind it is functional.
T2 sequence (P24822 whole entry): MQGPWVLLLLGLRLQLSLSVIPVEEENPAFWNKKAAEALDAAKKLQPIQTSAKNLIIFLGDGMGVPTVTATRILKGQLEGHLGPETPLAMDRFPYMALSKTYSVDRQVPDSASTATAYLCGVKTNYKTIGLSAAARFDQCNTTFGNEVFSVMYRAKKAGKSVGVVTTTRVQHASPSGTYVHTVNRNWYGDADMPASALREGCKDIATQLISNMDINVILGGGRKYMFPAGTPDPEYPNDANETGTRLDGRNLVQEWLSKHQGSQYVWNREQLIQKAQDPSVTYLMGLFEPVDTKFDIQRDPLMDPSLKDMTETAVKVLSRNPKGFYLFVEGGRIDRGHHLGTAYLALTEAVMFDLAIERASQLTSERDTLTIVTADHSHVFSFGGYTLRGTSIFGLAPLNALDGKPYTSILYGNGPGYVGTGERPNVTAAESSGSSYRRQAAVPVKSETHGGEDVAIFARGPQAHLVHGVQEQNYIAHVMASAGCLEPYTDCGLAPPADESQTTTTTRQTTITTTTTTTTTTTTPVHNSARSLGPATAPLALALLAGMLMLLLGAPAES
In assay [5] the target is T3, Alkaline phosphatase, tissue-nonspecific isozyme (Homo sapiens, UniProt P05186).
T3 sequence (P05186 whole entry): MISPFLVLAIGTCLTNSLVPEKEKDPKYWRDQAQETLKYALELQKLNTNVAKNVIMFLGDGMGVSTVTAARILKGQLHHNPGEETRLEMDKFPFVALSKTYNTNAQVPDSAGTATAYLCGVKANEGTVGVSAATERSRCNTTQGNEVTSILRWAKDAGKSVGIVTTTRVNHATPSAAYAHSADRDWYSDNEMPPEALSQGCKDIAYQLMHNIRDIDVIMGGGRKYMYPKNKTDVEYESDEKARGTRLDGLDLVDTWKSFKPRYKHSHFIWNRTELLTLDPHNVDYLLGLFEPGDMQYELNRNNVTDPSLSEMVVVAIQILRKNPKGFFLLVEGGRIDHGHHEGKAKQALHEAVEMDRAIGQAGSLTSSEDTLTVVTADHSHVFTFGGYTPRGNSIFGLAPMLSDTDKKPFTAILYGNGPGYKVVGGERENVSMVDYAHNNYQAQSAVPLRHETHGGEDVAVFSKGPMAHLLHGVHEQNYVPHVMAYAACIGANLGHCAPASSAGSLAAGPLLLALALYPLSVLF
Put plainly: TNAP enzyme inhibition by screening hits, dose response, selectivity assay for mouse IAP inhibitor project, biochemical, human TNAP, uHTS hits (AID 488906). Type of assay: functional.

Assay [6] has as its target T1, Intestinal-type alkaline phosphatase. Put plainly: activation of human intestinal alkaline phosphatase – biochemical, luminescent, uHTS hits, set 2, dose response (AID 488817).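 Also: potency of activators that raise enzyme activity.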 In kind it is functional.
Assay [7] addresses T2, Intestinal-type alkaline phosphatase. The assay is described as follows: PubChem AID 488875. In kind it is functional.
In assay [8] the target is T1, Intestinal-type alkaline phosphatase. The assay is described as follows: human intestinal alkaline phosphatase activators, dose response, biochemical, luminescence, uHTS hits (AID 463120). In kind it is functional.
The target in assay [9] is T4, Short transient receptor potential channel 4 (Mus musculus, UniProt Q9QUQ5).
T4 sequence (Q9QUQ5 whole entry): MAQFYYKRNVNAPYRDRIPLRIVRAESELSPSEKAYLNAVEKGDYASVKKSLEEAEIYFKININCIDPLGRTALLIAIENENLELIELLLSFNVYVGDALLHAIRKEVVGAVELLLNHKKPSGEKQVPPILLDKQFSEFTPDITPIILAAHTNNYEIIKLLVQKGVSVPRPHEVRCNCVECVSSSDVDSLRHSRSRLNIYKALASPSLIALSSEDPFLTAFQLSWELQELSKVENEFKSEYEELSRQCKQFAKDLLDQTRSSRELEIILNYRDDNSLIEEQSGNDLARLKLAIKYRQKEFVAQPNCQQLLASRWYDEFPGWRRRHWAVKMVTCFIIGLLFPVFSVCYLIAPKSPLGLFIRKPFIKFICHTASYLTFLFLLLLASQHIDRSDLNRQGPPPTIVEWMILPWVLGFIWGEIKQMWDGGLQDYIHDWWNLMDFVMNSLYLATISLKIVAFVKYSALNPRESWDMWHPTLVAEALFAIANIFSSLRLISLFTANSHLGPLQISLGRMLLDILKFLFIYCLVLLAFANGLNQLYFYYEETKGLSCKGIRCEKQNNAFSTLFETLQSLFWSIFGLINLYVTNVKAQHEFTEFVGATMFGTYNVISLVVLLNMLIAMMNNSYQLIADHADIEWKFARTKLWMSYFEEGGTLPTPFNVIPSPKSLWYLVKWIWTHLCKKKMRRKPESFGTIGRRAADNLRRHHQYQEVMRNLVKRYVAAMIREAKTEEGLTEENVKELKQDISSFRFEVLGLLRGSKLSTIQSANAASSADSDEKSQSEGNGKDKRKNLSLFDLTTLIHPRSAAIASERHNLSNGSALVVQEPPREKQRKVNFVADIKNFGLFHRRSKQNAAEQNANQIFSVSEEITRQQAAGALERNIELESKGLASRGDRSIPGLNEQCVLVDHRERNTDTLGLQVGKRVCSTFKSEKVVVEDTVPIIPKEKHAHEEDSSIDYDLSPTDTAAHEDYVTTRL
The assay is described as follows: block of DAMGO-driven TRPC4 calcium entry – cell-based, HEK293 TRPC4/mu-opioid, Fluo-4 calcium, dose response (AID 434942).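 Also: potency of inhibitors blocking the TRPC4 calcium response.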 Type of assay: functional.

Assay [10] deals with T3, Alkaline phosphatase, tissue-nonspecific isozyme. Put plainly: activation of tissue-nonspecific alkaline phosphatase – biochemical, TNAP isozyme, human IAP uHTS hits, selectivity assay for human IAP activator project, dose response (AID 488886).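 Also: potency of compounds raising TNAP activity as a selectivity check on IAP activators.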 Type of assay: functional.
For assay [11], the target named is T5, Kappa-type opioid receptor (Homo sapiens, UniProt P41145). In kind it is functional.
T5 sequence (P41145 whole entry): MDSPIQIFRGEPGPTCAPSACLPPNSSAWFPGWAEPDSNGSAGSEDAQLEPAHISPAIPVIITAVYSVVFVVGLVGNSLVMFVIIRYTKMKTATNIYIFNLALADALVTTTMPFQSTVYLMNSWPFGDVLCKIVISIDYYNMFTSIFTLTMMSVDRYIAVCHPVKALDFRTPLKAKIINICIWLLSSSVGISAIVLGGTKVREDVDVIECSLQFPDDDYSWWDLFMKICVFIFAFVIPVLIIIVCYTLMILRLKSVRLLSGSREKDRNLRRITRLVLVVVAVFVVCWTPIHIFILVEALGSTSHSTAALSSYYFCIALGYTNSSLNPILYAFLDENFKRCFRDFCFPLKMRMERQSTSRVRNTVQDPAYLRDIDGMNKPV
Assay [12] addresses T6, Delta-type opioid receptor (Homo sapiens, UniProt P41143). The assay is described as follows: HTS Image-Based Screen for Antagonists of the DOR Receptor. [Related pubchem assays (depositor defined):AID1777, AID1785, AID1786, AID2133]. In kind it is functional.
Assay [13] concerns the target T5, Kappa-type opioid receptor. In kind it is functional. This is another data set of the same source.
The target in a further assay is Paired box protein Pax-8 (Homo sapiens, UniProt Q06710). The assay is described as follows: PAX8 transcriptional activity inhibition in RMG-I – RMG-I cells, luciferase, cherry-pick, dose response (AID 687027).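 Also: luciferase reporter driven by Pax8 target thyroperoxidase promoter measured by SteadyGlo luminescence.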 Type of assay: functional, cell-based.
In assay [14] the target is T6, Delta-type opioid receptor. The assay is described as follows: HTS Image-Based Screen for Agonists of the DOR Receptor. [Related pubchem assays (depositor defined):AID1777, AID1786, AID2133]. In kind it is functional.
In another assay the target is Mu-type opioid receptor (Homo sapiens, UniProt P35372). The assay is described as follows: HTS Image-Based Screen for Agonists of the MOR Receptor. [Related pubchem assays (depositor defined):AID1777, AID1785, AID1786, AID2133]. Type of assay: functional.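 Also: imaging of beta-arrestin GFP recruitment into spots after receptor activation.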
Mu-type opioid receptor, sequence (P35372 whole entry): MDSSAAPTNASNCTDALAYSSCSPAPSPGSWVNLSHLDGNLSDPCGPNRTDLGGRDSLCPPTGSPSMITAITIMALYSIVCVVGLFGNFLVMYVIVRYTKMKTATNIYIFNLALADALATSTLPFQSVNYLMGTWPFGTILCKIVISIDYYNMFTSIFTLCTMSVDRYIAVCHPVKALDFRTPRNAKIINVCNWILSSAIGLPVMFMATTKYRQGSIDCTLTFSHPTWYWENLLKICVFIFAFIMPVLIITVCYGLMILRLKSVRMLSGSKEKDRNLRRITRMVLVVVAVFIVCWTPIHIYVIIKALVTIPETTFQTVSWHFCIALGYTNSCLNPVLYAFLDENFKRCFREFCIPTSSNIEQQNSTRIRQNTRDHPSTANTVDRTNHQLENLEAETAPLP
Another assay addresses T7, Streptokinase A (Streptococcus pyogenes serotype M1, UniProt P10520).
T7 sequence (P10520 whole entry): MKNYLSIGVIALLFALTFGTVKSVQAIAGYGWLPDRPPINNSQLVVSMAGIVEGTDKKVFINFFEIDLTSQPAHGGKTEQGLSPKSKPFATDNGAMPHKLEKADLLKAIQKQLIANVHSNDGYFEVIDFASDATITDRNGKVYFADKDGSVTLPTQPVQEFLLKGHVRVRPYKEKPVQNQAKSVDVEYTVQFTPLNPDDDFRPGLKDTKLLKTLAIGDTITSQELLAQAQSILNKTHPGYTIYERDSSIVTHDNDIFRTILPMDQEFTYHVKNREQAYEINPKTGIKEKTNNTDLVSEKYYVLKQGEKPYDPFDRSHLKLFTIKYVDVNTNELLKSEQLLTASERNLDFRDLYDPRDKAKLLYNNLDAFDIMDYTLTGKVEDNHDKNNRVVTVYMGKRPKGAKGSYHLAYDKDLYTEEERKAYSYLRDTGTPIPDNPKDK
The assay is described as follows: viability-normalized secreted streptokinase activity reduction – plasminogen activation absorbance, OD405, dose response (AID 1914).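 Also: secreted streptokinase activity via plasminogen activation per viability signal from cell pellet.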 In kind it is functional, Streptococcus pyogenes M1 GAS.

The target of another assay is Beta-galactosidase (Escherichia coli, UniProt Q8VNN2). In kind it is functional.
Assay [15] addresses Sphingosine 1-phosphate receptor 1 (Homo sapiens, UniProt P21453). The assay is described as follows: Late stage counterscreen assay for S1P4 antagonists: Fluorescence dose response cell-based screening assay for antagonists of the Sphingosine 1-Phosphate Receptor 1 (S1P1). [Related pubchem assays (depositor defined):AID1510, AID1524, AID1692, AID1853, AID2332, AID489009, AID489017]. In kind it is functional.

Assay [16] has as its target Sphingosine 1-phosphate receptor 2 (Homo sapiens, UniProt O95136). The assay is described as follows: Late stage counterscreen assay for S1P4 antagonists: Fluorescence dose response cell-based screening assay for antagonists of the Sphingosine 1-Phosphate Receptor 2 (S1P2). [Related pubchem assays (depositor defined):AID1510, AID1524, AID1692, AID1853, AID2332, AID489009, AID489017]. Type of assay: functional. In general terms: Counterscreens check selectivity or assay interference.

The target of assay [17] is Sphingosine 1-phosphate receptor 5 (Homo sapiens, UniProt Q9H228). The assay is described as follows: Late stage counterscreen assay for S1P4 antagonists: Fluorescence dose response cell-based screening assay for antagonists of the Sphingosine 1-Phosphate Receptor 5 (S1P5). [Related pubchem assays (depositor defined):AID1510, AID1524, AID1692, AID1853, AID2332, AID489009, AID489017]. In kind it is functional.
Sphingosine 1-phosphate receptor 5, sequence (Q9H228 whole entry): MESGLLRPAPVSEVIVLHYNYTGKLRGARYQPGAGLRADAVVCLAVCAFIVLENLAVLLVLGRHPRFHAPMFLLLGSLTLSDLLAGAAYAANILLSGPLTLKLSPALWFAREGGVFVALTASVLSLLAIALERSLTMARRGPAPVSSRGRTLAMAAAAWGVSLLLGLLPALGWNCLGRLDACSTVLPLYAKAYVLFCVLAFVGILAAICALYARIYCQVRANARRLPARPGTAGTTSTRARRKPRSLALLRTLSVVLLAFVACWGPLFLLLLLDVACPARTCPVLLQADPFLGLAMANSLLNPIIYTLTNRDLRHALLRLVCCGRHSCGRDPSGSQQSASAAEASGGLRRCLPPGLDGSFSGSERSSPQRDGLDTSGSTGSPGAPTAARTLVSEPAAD

Assay [18] deals with Sphingosine 1-phosphate receptor 3 (Homo sapiens, UniProt Q99500). Put plainly: Late stage counterscreen assay for S1P4 antagonists: Fluorescence dose response cell-based screening assay for antagonists of the Sphingosine 1-Phosphate Receptor 3 (S1P3). [Related pubchem assays (depositor defined):AID1510, AID1524, AID1692, AID1853, AID2332, AID489009, AID489017]. In kind it is functional.

A short description of assay [19]: Counterscreen for AddAB inhibitors: absorbance-based bacterial cell-based high throughput dose response assay for inhibitors of bacterial viability. [Related pubchem assays (depositor defined):AID435030, AID449728, AID449731, AID488942, AID488955, AID488956]. In kind it is functional.
The next assay has as its target Exodeoxyribonuclease V (Escherichia coli (strain K12), UniProt P04993+P07648+P08394). The assay is described as follows: RecBCD inhibition via phage-restricted bacterial growth – absorbance, V66 E. coli, mutant T4 phage, counter-screen for AddAB inhibitor project, dose response (AID 492957). In kind it is functional, cell-based, Escherichia coli str. K-12 substr. MG1655.

Assay [20] addresses T8, High affinity choline transporter 1 (Homo sapiens, UniProt Q9GZV3).
T8 sequence (Q9GZV3 whole entry): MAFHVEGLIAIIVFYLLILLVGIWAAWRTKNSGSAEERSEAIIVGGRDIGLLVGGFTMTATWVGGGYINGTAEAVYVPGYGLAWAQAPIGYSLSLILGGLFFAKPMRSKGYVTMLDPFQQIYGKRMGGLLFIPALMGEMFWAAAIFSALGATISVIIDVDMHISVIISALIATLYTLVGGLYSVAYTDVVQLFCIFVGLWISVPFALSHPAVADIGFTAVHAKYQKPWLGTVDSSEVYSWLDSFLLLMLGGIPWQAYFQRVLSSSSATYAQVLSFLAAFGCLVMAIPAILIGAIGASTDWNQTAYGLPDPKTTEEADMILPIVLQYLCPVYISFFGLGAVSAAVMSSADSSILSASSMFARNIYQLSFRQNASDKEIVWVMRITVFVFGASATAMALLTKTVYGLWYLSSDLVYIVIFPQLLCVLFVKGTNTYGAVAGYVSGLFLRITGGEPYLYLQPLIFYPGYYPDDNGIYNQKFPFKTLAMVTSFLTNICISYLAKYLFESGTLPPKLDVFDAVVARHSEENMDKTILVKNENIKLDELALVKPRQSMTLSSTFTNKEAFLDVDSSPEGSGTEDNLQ
Put plainly: human choline transporter blockers, potency – cell-based, 5-point CRC, membrane potential dye, dose response (AID 504840). Type of assay: functional.

A further assay concerns the target CAAX prenyl protease 1 (Saccharomyces cerevisiae S288c, UniProt P47154). Put plainly: yeast CAAX protease Ste24 inhibition – biochemical, S. cerevisiae, plate reader, cherry-pick, dose response (AID 488815).
For a further assay, the target named is Trypsin (Sus scrofa, UniProt P00761). Put plainly: trypsin protease activity blockade – biochemical, quenched peptide fluorescence, cherry-pick, selectivity assay for Rce1 protease inhibitor project, dose response (AID 488789).
Trypsin, sequence (P00761 whole entry): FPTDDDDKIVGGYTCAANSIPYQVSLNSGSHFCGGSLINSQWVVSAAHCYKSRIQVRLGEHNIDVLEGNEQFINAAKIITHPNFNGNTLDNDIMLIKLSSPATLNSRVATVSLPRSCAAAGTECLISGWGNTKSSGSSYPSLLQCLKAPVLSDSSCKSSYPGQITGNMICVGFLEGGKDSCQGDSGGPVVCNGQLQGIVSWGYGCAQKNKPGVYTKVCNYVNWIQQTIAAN

T1 sequence (P09923 whole entry): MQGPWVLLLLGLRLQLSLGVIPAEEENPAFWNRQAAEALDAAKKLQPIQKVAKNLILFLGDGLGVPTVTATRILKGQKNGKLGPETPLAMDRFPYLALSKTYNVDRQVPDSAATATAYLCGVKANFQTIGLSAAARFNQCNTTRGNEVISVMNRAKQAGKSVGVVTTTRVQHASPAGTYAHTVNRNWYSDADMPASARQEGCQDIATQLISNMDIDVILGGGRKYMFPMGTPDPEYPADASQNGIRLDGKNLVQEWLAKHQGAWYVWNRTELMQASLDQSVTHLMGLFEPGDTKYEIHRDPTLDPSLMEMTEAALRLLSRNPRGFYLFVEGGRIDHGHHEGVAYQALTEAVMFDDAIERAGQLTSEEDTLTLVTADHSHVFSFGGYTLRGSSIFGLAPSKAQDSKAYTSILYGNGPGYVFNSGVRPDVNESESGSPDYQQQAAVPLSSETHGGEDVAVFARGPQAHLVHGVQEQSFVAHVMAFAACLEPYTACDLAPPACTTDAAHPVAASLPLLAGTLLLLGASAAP
T6 sequence (P41143 whole entry): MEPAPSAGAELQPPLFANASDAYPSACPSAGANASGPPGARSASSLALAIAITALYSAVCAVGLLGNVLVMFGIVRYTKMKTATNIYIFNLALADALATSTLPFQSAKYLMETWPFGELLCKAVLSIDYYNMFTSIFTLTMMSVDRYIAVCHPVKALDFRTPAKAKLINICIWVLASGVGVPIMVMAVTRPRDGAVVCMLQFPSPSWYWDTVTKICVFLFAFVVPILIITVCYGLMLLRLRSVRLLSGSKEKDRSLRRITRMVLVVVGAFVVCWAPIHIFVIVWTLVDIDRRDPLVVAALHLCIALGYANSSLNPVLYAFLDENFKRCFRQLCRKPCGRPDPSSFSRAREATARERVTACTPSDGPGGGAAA
Polyadenylate-binding protein 1, sequence (P11940 whole entry): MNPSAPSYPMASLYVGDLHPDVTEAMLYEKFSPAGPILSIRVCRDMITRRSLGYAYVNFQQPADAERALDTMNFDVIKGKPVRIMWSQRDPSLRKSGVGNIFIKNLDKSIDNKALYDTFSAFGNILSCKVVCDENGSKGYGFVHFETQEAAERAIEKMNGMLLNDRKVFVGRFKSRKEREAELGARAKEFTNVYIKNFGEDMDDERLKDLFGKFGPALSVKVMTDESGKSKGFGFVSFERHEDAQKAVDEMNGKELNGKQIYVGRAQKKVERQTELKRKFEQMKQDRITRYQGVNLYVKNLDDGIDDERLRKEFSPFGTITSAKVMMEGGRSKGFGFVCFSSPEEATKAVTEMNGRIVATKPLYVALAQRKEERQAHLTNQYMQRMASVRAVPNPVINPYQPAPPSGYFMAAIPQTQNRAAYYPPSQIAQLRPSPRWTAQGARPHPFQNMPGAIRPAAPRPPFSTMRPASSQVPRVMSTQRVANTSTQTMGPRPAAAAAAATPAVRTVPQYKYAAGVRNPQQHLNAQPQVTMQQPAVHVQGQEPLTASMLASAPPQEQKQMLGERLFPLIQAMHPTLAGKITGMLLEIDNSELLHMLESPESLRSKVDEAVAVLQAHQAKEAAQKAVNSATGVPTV
Sphingosine 1-phosphate receptor 1, sequence (P21453 whole entry): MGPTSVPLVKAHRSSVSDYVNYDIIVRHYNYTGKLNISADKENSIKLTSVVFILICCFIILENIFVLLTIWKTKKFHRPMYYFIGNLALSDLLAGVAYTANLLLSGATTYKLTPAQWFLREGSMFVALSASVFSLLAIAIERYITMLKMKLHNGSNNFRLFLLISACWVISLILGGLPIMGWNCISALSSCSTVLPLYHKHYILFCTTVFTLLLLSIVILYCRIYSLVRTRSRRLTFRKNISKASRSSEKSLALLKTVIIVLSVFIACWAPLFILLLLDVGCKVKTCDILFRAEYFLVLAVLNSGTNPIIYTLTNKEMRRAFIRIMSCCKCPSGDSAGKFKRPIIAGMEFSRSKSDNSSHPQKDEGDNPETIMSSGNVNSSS
CAAX prenyl protease 1, sequence (P47154 whole entry): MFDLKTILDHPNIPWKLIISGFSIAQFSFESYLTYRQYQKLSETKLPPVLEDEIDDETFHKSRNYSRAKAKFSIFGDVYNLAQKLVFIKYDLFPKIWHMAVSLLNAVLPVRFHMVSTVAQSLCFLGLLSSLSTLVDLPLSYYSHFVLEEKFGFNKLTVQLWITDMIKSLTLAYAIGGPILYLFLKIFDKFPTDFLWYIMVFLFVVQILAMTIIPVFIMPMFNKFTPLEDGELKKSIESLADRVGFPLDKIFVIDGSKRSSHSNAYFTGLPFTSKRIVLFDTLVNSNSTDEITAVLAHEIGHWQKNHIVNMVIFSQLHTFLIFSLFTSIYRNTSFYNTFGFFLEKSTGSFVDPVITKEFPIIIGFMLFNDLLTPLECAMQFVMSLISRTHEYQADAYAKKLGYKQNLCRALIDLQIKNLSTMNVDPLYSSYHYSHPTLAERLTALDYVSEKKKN
Sphingosine 1-phosphate receptor 2, sequence (O95136 whole entry): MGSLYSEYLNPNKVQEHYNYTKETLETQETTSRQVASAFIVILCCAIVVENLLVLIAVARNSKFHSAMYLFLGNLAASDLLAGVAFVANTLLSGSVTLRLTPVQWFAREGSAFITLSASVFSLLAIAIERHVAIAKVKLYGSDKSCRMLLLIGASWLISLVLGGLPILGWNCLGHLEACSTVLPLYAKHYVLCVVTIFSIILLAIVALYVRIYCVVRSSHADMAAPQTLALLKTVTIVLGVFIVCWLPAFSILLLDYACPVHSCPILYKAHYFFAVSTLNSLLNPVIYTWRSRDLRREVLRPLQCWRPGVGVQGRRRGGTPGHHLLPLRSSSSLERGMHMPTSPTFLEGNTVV

On to `COc1cc(OC)c2c(c1O)OC(c1ccccc1)CC2=O` (configuration not stated), for which the IC50 was > 100 µM (inactive) in assay [1]; 91.1 µM (active) in assay [2]; 48.6 µM (active) in [3]; 21.8 µM (active) in [4]; > 100 µM (inactive) in assay [5].

In the case of `CCOc1ccccc1CN1CCC(n2nccc2NC(=O)CCc2ccccc2)CC1`, the EC50 in [6] is 80.1 µM (active); in assay [7] it was 80.6 µM (active); in [8], 59.9 µM (active); in assay [9], 0.473 µM (active); in [10], 74.4 µM (active).

On to `O=c1nc(-c2ccccn2)[nH]c2sc(-c3ccccc3)cc12`, for which the IC50 was > 32 µM in [11], > 32 µM (inactive) in assay [12] and 1.79 µM (active) in assay [13]. Also, at Paired box protein Pax-8, the AC50 was 14 µM (active). Besides, the EC50 in assay [14] was > 32 µM (inactive); on Mu-type opioid receptor, > 32 µM (inactive); on Streptokinase A it was > 150 µM (not active); on Beta-galactosidase it was > 31.5 µM (inactive).

Take `Cc1cccc(C)c1NC(=O)c1ccc(-c2cccc(Cl)c2)o1`: the IC50 in assay [15], in assay [16], in [17] and in [18] was > 25 µM (inactive) throughout.

On to `Fc1ccc(Nc2nnc(C(F)(F)F)s2)cc1Cl`, for which the IC50 in assay [19] is 96.8 µM (inactive); at Exodeoxyribonuclease V it was > 39.5 µM (inactive); in assay [20] it was 11 µM (active).

For the compound `CCN(CC)CCCNC(=O)CCc1c(C)n(CC)c2cc(-c3ccccc3OC)nn2c1=O`, the figures for the AC50 at CAAX prenyl protease 1 and on Trypsin were 6.24 µM (active) and 13.1 µM (active), respectively.

Usually IC50 stands for the midpoint of a concentration-inhibition curve. For orientation: EC50 means the concentration at which the effect is half-maximal. As usually defined, the AC50 is the midpoint of the concentration-response curve, whichever way the signal moves.
